For twelve compounds, TGI and GI50 results are on record in PubChem BioAssay (NCI).

One may read the TGI as the concentration giving total growth inhibition. The GI50 is the concentration that inhibits growth by half.

What all share (assay): DTP human tumour cell line panel, 48 h
Assay [1] relates to DU-145 prostate.
The test system of assay [2] is HCC-2998 colon.
In assay [3] the test system is HCT-116 colon.
In assay [4] the test system is HOP-62 NSCLC.
Assay [5] deals with HS 578T breast.
The subject of assay [6] is MDA-MB-231 breast.
In assay [7] the test system is NCI/ADR-RES ovarian.
Assay [8] has as its system OVCAR-4 ovarian.
Assay [9] deals with SNB-19 CNS.
The subject of assay [10] is SNB-75 CNS.
For assay [11], the system named is UACC-62 melanoma.

Structures are written as SMILES. Values joined by “and” are separate entries in the source; they are usually repeats but may differ in a detail not shown here. Equal entries are not always repeated.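 Exposure lasted 48 hours, with cells grown in 96-well plates and compounds tested at five concentrations. Here, GI50 denotes the concentration required for 50% inhibition of growth. Definition used: TGI = concentration required for complete inhibition of growth.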

On to `Cn1cccc1-c1ccc(-c2ccc(CO)[se]2)[se]1`, for which the TGI in assay [1] was 70.1 µM; in [2], greater than 68.4 µM; in assay [3] it was greater than 100 µM; in assay [4], greater than 88.1 µM; in assay [5], greater than 100 µM; in [6] it was greater than 79.8 µM. The TGI in assay [7] is greater than 81 µM; in [8], 53.8 µM; in assay [9], greater than 100 µM; in assay [10], 59.5 µM; in [11], greater than 100 µM.

Consider `CCC1(O)CC(OC2CC(N(C)C)C(OC3CC(O)C(OC4OC(C)C(=O)C=C4N)C(C)O3)C(C)O2)c2c(cc3c(c2O)C(=O)c2c(O)cccc2C3=O)C1C(=O)OC` (stereo unspecified), for which the TGI in [1] was 1.7 µM and 1.71 µM; in assay [2], 0.0824 µM and 0.0294 µM; in assay [3] it was 1.79 µM; in [4], 1.14 µM and 0.344 µM; in assay [5], 0.594 µM and 4.1 µM; in [6] it was 2.03 µM and 2.09 µM. Further, the concentration for total growth inhibition (TGI) in [7] is 5.5 µM and 27 µM; in assay [9] it was 2.05 µM; in assay [10], 0.555 µM; in assay [11], 0.17 µM and 0.0324 µM. Further, the figures for the GI50 in assay [5], in assay [6] and in [7] were 0.0579 µM, 0.0369 µM and 1.86 µM, respectively.

With `COC(C/C(=C/CO[Si](C(C)C)(C(C)C)C(C)C)C(=O)N(COCC[Si](C)(C)C)c1ccccc1I)OC`, the concentration for total growth inhibition (TGI) was greater than 100 µM in assay [1]; greater than 100 µM in assay [2]; 46.2 µM in assay [3]; greater than 100 µM in assay [4]; greater than 100 µM in [5]; greater than 100 µM in assay [6]. For the same compound, the total growth inhibition concentration (TGI) in assay [7] is greater than 100 µM; in assay [8] it was greater than 100 µM; in assay [9] it was greater than 100 µM; in [10], greater than 100 µM; in [11], 50.7 µM.

Take `ClC(Cl)(Cl)C1CCOC1n1nnc2ccccc21` (stereo unspecified): the TGI in assay [1], in assay [2], in [3], in [4], in [5] and in assay [6] was greater than 100 µM in each case. In addition, the results for the TGI in [7], in assay [10] and in [11] were greater than 100 µM, 54.3 µM and greater than 100 µM, respectively.

`CC(=O)O[C@H]1CC[C@@]2(C)C(=CC[C@@H]3[C@@H]2CC[C@]2(C)C(=N/O)/C(=C\c4ccccc4)C[C@@H]32)C1`: the total growth inhibition concentration (TGI) is greater than 91 µM in assay [1]; 32 µM in assay [2]; greater than 100 µM in [3]; 71.6 µM in assay [4]; 50.9 µM in assay [5]; 73.2 µM in assay [6]. Further, the TGI in assay [7] is greater than 72.9 µM; in [8], greater than 100 µM; in assay [9], greater than 100 µM; in assay [10] it was greater than 100 µM; in [11], 31.9 µM.

`C#C[C@]1(O)CC[C@H]2[C@@H]3CCC4=C/C(=N/NC(=O)c5cccc6c(=O)c7ccccc7[nH]c56)CCC4[C@H]3CC[C@@]21C` (stereo partly specified): the total growth inhibition concentration (TGI) in assay [1], in assay [2], in assay [3], in assay [4], in [5] and in assay [6] was greater than 100 µM in each case. Moreover, the TGI in [7], in [8], in assay [9], in assay [10] and in assay [11] was greater than 100 µM throughout.

With `N#CC(CCN1CCC(Nc2ccccc2)(c2nnnn2C2CCCCC2)CC1)(c1ccccc1)c1ccccc1`, the TGI in [1], in [2], in assay [3], in assay [4], in assay [5] and in [6] was greater than 100 µM each time. Moreover, the TGI in assay [7], in assay [8], in assay [9], in assay [10] and in assay [11] was greater than 100 µM each time.

For `Cc1cc(S(=O)(=O)Nc2nc3ncccc3[nH]2)c(S)cc1Cl`, the TGI in assay [1], in [2], in assay [3], in [4], in [5] and in assay [6] was greater than 100 µM throughout. For the same compound, the concentration for total growth inhibition (TGI) in assay [7], in assay [8], in [9], in [10] and in assay [11] was greater than 100 µM throughout.

On to `NCCCN(CCCCN(CCCN)C(=O)OCc1ccccc1)C(=O)OCc1ccccc1`, for which the TGI was greater than 100 µM in assay [1]; greater than 100 µM in assay [2]; greater than 100 µM in [3]; greater than 100 µM in assay [4]; greater than 100 µM in assay [5]; 93.7 µM in assay [6]. The TGI in [7], in assay [8], in assay [9], in assay [10] and in assay [11] was greater than 100 µM throughout.

`COC(=O)[C@@H]1CS(=O)(=O)C(C(C)C)N1C(C)=O` (stereo partly specified): the TGI in assay [1], in [2], in assay [3], in [4], in [5] and in assay [6] was greater than 100 µM each time. For the same compound, the TGI in [7], in assay [8], in assay [9], in assay [10] and in assay [11] was greater than 100 µM in each case.

Take `O=c1[nH]nc(-c2ccccc2)n1/N=C/c1ccc([N+](=O)[O-])o1`: the TGI was 17.5 µM in [1]; 12.4 µM in assay [2]; 5.55 µM in [3]; 19.7 µM in assay [4]; greater than 100 µM in assay [5]; 19.5 µM in assay [6]. The concentration for total growth inhibition (TGI) in assay [7] is greater than 26 µM; in assay [8], 16.7 µM; in [9] it was greater than 47.2 µM; in assay [10], greater than 70.2 µM; in [11] it was 11.2 µM.

With `Nc1cc2c(c3ccccc13)C(CCl)CN2C(=O)c1cc2cc(NC(=O)Nc3ccc4[nH]c(C(=O)N5CC(CCl)c6c5cc(N)c5ccccc65)cc4c3)ccc2[nH]1` (stereo unspecified), the concentration for total growth inhibition (TGI) in assay [1] amounted to 0.704 µM; in assay [2], 1.19 µM; in [3], 1.13 µM; in assay [4], 1.55 µM; in assay [5], 12.3 µM; in assay [6] it was 2.16 µM. The TGI is 39.4 µM in [7], greater than 100 µM in assay [8], 0.73 µM in assay [10] and 1.05 µM in assay [11].
